EP2809669B1, “FUSED PYRROLEDICARBOXAMIDES AND THEIR USE AS PHARMACEUTICALS” (SANOFI, priority 2012, dated 2013)

How the values were obtained:
upper airway = assay: Effect on upper airway collapsibility in the anesthetized pig (negative pressure challenge); assay type: in vivo; conditions: negative pressure -150 mbar
Excerpt: Effect on upper airway collapsibility in the pig Pharmacological efficacy against obstructive apneas was investigated in chloralose-urethane anesthetized pigs (weight range 20 to 35 kg), a large-animal model for obstructive apneas. Negative pressure generated by a negative pressure device was applied with a cannula to the upper part of the trachea for at least three breaths so that the upper airway was exposed to the negative pressure generated by the device. This caused an upper airway collapse as in an obstructive apnea in control animals treated with vehicle only, and in animals of the treatment group before the test compound was administered (baseline situation). Different levels of negative pressure were used to cause a collapse of the upper airway (-50 mbar, -100 mbar and -150 mbar). These negative pressure challenges were repeated several times before vehicle or test compound was given, and at regular intervals after administration of vehicle or test compound. Whether the upper airway was collapsed or open, was judged by airflow measurement and by the tracheal pressure in the cannula inserted into the upper trachea. In case the upper airway was collapsed by the negative pressure, airflow to the negative pressure device was close to zero. As a second parameter tracheal pressure approached the negative pressure generated by the device during upper airway collapse. Test compounds were administered by intravenous bolus injection. After administration of an effective test compound the upper airway was open during the negative pressure challenges, i.e. not collapsed, as indicated by airflow to the negative pressure device and the fact that tracheal pressure now approached atmospheric pressure in the inspiratory phase where upper airway muscles are activated. In vehicle-treated controls upper airway collapse occurred at every negative pressure challenge at -50 mbar, -100 mbar and -150 mbar. In Table 17, the time after administration of compounds of the formula I from the examples above is shown during which no upper airway collapse occurred (time of inhibition of collapsibility) at a negative pressure of -150 mbar. […]

hERG channel = target: T1, hERG channel (Homo sapiens, UniProt Q12809); assay: Determination of the effect on the hERG channel in CHO cells (whole-cell patch clamp); assay type: cell-based; conditions: CHO cells stably expressing hERG, room temperature, read-out: IC50 value [µM] for hERG inhibition
T1 construct: expressed in transfected cells
Protocol: Determination of the effect on the hERG channel in CHO cells
An inhibition of the hERG (human Ether-a-go-go-Related Gene) potassium channel is unwanted because it can lead to dangerous arrhythmias. The effect of compounds of the formula I on the cloned human cardiac hERG channel was evaluated in an in vitro model using a whole-cell patch-clamping technique. CHO (Chinese hamster ovary) cells stably expressing hERG, the potassium channel underlying IKr currents in human hearts, were grown in HAM's F-12 media supplemented with 10 % fetal bovine serum, 1 x penicillin/streptomycin and 500 µg/ml G418 (Invitrogen, Carlsbad, CA, USA) in an atmosphere of 95 % air and 5 % carbon dioxide. Cells used for patch-clamping were seeded on glass or plastic coverslips 12 to 36 hours before use. hERG channel currents were recorded at room temperature using the whole-cell configuration of the patch clamp technique with an Axopatch 200B amplifier (Axon Instruments, Foster City, CA, USA). Briefly, electrodes (3 to 6 MΩ resistance) were fashioned from TW150F glass capillary tubes (World Precision Instruments, Sarasota, FL, USA) and filled with pipette solution (containing 120 mM potassium aspartate, 20 mM potassium chloride, 4 mM adenosine triphosphate disodium salt, 5 mM HEPES, 1 mM magnesium chloride; pH adjusted to 7.2 with potassium hydroxide). hERG currents were initiated by a positive voltage pulse (20 mV) followed by a negative pulse (-40 mV) and were recorded for off-line analyses. Once hERG current from a cell perfused with external solution (containing 130 mM sodium chloride, 5 mM potassium chloride, 2.8 mM sodium acetate, 1 mM magnesium chloride, 10 mM HEPES, 10 mM glucose, 1 mM calcium chloride; pH adjusted to 7.4 with sodium hydroxide) without the test compound, i.e. control solution, was stabilized, the cell was perfused with external solution containing the test compound at specific concentrations. For each concentration from each cell, peak amplitude of the steady-state hERG tail current at -40 mV was measured in picoAmpere (pA). The peak amplitude in pA for each concentration (up to a maximum concentration of 10 µM) was compared with that for the control solution from the same cell and expressed as percent value of the control. From the percent values at multiple concentrations, IC50 values for inhibition of hERG can be determined.

[1] = 100 µg/kg intravenous bolus injection

T1 sequence (Q12809 whole entry): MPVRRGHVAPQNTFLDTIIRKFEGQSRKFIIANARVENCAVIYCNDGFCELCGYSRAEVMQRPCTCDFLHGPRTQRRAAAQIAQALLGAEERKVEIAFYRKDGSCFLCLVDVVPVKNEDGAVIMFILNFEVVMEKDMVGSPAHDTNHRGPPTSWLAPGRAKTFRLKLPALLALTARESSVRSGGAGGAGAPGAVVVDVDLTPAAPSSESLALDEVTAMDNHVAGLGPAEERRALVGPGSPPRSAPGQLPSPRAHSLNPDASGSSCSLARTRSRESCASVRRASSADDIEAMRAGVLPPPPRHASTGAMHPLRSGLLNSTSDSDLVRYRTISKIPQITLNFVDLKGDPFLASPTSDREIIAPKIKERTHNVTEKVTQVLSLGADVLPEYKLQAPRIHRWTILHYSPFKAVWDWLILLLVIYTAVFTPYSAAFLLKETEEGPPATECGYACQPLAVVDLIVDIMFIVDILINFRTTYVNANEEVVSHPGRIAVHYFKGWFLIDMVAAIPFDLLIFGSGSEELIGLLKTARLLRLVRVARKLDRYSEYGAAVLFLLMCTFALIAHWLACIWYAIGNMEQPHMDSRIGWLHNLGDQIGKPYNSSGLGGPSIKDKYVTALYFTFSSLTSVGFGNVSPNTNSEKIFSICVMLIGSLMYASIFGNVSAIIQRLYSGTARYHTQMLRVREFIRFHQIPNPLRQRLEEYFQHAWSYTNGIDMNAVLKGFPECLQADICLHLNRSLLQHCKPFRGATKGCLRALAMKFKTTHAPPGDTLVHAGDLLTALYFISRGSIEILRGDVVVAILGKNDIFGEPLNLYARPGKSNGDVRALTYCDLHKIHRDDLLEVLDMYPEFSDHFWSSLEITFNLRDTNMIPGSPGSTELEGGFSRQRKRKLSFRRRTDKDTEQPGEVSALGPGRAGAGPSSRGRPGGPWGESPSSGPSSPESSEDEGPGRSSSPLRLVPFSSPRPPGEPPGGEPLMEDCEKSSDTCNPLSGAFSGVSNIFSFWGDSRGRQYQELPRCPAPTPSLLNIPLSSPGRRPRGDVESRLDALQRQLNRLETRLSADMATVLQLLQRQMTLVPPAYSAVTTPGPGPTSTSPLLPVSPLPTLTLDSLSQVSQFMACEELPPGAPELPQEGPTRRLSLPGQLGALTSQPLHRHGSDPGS

| SMILES | Time of inhibition of collapsibility (at -150 mbar) (upper airway; 10 µg/kg intravenous bolus injection) | IC50 (hERG channel) | Time of inhibition of collapsibility (at -150 mbar) (upper airway; [1]) |
| --- | --- | --- | --- |
| CC[C@@H](NC(=O)c1cc(C(=O)N[C@H](CC)c2ccccc2)n2c1COCC2)c1ccccc1 [16i, 3,4-Dihydro-1H-pyrrolo[2,1-c][1,4]oxazine-6,8-dicarboxylic acid bis-[((R)-1-phenylpropyl)-amide]] | for 90 min | > 10 µM | – |
| CC[C@@H](NC(=O)c1cc(C(=O)N[C@H](CC)c2ccc(OC)nc2)n2c1COCC2)c1ccccc1 [16j, 3,4-Dihydro-1H-pyrrolo[2,1-c][1,4]oxazine-6,8-dicarboxylic acid 6-{[(R)-1-(6-methoxy-pyridin-3-yl)-propyl]-amide}8-[((R)-1-phenyl-propyl)-amide]] | – | > 10 µM | for 120 min |
| CCOC(=O)CNC(=O)c1cc(C(=O)N[C@H](CC)c2ccccc2)c2n1CCOC2 [16k, {[8-((R)-1-Phenyl-propylcarbamoyl)-3,4-dihydro-1H-pyrrolo[2,1-c][1,4]oxazine-6-carbonyl]-amino}-acetic acid ethyl ester] | – | > 10 µM | for >240 min |
| CCOC(=O)[C@H](C)N(C)C(=O)c1cc(C(=O)N[C@H](CC)c2ccccc2)c2n1CCOC2 [16l, (S)-2-{Methyl-[8-((R)-1-phenyl-propylcarbamoyl)-3,4-dihydro-1H-pyrrolo[2,1-c][1,4]oxazine-6-carbonyl]-amino}-propionic acid ethyl ester] | – | > 10 µM | for >120 min |
| CC[C@@H](NC(=O)c1cc(C(=O)N2CCC[C@@H]2C(=O)OC(C)C)n2c1COCC2)c1ccccc1 [16n, (R)-1-[8-((R)-1-Phenyl-propylcarbamoyl)-3,4-dihydro-1H-pyrrolo[2,1-c][1,4]oxazine-6-carbonyl]-pyrrolidine-2-carboxylic acid isopropyl ester] | – | > 10 µM | for 120 min |
